Reference: US6552079B2, “Integrin antagonists” (Eli Lilly and Company, priority 1996, dated 2003)

Experiments:
[1] = test system: ADP-induced aggregation of human platelets (PRP); assay: Platelet aggregation assay (Aggregation-Human/PRP/ADP); type: cell-based; details: human platelet rich plasma, ADP 20 μM
Description: In addition to the ELISA integrin binding assays described above, the Aggregation-Human/PRP/ADP Assay is useful for evaluating therapeutic compounds.
Platelet rich plasma (PRP) is prepared from healthy human volunteers for use in determining inhibition of platelet aggregation by compounds. Blood was collected via a 21 gauge butterfly cannula, using a two-syringe technique into 1/10 volume of […] trisodium citrate.
Platelet rich plasma was prepared at room temperature by centrifugation of the citrated whole blood at 100×g for 15 minutes. The PRP contained approximately 200-400,000 platelets/μl. Platelet poor plasma was prepared by centrifugation of citrated whole blood at 12,000×g for 2 minutes.
Platelet aggregation was assayed in a Chrono-log whole blood aggregometer (Chrono-log Corporation, Havertown, Pa.) using the PRP prepared above according to the manufacturers directions. Inhibition of platelet aggregation was studied by adding varying amounts of test materials followed by adenosine diphosphate (ADP, 20 μM) to stirred human PRP. Specifically, the human PRP was incubated with the compound for 1-2 min. at 37° C. prior to addition of the aggregating agent ADP.

[2] = biological target: T1, vitronectin receptor, αvβ3 (Homo sapiens, UniProt P05106+P06756); assay: αvβ3 ELISA purified integrin binding assay (vitronectin binding); details: inhibition of biotinylated vitronectin binding to immobilized purified αvβ3
T1 construct: After purification, the receptors were each stored in 0.1% Triton X-100 at 0.1-1.0 mg/ml; from tissue
Description: (§1) In the following assays, GPIIb-IIIa and vitronectin receptor, αvβ3 were prepared in purified form, by methods described in Fitzgerald, L. A., et al., Anal Biochem (1985) 151: 169-177 and Smith, J. W., J. Biol Chem (1988) 263: 18726-18731 (the disclosure of which is incorporated herein by reference). GPIIb-IIIa or vitronectin receptor, αvβ3, are coated onto microtiter plates. The coated support is then contacted with fibrinogen for the GPIIb-IIIa assay, or is contacted with vitronectin for the vitronectin receptor, αvβ3 and with test materials and incubated for sufficient time to reach maximal ligand binding to immobilized integrins. The adhesive ligands fibrinogen or vitronectin were typically provided at a concentration of 2-50 nM and the test material can, if desired, be added at a series of diultions. […]
(§2) The corresponding ligands (fibrinogen, von Willebrand Factor, or vitronectin) were conjugated to biotin using commercially available reagents and standard protocols. […] After incubation, the wells were aspirated to dryness and bound ligand containing biotin label was quantitated.
(§3) The bound protein was detected by the addition of anti-biotin antibody conjugated to alkaline phosphatase followed by addition of substrate (p-nitrophenyl […] phosphate), and determination of the optical density of each well at […].

GPIIb-IIIa = biological target: T2, GPIIb-IIIa (Homo sapiens, UniProt P05106+P08514); assay: GPIIb-IIIa ELISA purified integrin binding assay (fibrinogen binding); details: inhibition of biotinylated fibrinogen binding to immobilized purified platelet GPIIb-IIIa; read-out: GPIIbIIIa ELISA (IC50 μM)
T2 construct: Purified platelet GPIIb-IIIa was prepared by Fitzgerald, L. A., et al; from tissue; host or cells: platelets
Description: as §1, §2, §3

T1 sequence (P06756 31-889 limits assumed): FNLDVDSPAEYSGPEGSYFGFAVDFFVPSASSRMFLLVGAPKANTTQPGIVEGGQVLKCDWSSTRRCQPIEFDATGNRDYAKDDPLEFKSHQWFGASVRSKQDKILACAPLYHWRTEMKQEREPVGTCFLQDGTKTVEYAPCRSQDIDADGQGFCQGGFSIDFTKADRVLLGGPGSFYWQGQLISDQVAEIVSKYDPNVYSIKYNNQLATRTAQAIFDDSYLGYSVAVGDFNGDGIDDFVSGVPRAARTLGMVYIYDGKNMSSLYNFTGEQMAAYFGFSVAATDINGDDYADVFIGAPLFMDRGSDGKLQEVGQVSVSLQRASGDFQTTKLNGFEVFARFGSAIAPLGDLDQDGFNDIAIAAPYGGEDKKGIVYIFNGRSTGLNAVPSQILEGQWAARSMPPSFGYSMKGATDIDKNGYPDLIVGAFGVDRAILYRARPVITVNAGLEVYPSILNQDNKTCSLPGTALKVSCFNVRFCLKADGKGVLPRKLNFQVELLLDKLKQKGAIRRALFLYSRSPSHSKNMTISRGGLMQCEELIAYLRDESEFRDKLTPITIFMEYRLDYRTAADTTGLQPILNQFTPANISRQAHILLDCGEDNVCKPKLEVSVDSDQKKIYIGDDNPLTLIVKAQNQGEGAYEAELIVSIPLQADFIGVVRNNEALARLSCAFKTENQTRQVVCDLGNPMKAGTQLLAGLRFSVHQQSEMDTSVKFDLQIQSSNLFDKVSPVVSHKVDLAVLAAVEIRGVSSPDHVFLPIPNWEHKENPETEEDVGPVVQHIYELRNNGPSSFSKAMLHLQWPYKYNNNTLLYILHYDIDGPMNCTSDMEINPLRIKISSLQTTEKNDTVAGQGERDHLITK
T1 sequence (P06756 891-1048 partner limits assumed): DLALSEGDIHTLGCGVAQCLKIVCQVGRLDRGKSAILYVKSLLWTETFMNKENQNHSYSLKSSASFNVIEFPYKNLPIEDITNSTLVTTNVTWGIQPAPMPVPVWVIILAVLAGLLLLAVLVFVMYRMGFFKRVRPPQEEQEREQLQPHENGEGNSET
T1 sequence (P05106 27-788): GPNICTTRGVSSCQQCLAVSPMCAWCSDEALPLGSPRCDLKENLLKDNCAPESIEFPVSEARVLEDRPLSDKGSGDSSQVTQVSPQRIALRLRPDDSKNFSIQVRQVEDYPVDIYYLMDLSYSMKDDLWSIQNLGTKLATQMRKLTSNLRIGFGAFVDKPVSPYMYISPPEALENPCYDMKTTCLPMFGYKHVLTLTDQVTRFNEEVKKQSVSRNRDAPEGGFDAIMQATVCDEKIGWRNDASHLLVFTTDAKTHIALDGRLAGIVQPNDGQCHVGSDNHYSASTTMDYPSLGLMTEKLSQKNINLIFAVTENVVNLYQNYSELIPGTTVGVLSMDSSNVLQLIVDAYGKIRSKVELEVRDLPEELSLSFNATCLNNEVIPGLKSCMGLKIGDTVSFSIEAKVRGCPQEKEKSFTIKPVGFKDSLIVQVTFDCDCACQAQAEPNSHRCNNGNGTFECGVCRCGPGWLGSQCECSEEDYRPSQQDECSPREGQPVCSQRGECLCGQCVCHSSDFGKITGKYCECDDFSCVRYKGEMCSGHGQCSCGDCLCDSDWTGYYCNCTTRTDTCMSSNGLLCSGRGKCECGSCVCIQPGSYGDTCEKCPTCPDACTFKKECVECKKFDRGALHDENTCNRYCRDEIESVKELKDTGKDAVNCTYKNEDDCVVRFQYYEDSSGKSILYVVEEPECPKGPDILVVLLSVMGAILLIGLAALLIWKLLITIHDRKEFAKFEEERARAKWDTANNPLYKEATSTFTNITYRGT
T2 sequence (P08514 32-887 limits assumed): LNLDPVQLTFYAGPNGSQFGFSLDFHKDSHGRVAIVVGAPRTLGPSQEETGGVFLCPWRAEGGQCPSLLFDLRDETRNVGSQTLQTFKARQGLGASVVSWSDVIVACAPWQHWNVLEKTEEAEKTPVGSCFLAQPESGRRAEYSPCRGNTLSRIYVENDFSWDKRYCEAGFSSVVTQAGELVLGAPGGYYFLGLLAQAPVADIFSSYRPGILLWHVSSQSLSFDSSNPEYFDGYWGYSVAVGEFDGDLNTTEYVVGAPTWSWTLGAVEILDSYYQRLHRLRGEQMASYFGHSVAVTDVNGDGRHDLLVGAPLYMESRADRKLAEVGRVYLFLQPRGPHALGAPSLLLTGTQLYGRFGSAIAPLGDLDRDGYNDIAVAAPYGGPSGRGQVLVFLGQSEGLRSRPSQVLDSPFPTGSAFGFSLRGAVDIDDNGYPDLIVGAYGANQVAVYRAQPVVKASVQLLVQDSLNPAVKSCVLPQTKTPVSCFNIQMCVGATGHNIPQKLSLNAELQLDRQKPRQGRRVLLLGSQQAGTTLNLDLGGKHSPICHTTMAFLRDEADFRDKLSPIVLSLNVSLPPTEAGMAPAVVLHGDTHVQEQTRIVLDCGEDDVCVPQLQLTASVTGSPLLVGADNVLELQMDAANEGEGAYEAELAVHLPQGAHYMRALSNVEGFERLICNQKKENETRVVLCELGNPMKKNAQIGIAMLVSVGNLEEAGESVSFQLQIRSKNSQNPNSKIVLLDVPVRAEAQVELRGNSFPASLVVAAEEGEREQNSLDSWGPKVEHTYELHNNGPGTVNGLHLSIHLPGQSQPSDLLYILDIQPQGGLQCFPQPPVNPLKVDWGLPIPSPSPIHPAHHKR
T2 sequence (P08514 891-1039 partner limits assumed): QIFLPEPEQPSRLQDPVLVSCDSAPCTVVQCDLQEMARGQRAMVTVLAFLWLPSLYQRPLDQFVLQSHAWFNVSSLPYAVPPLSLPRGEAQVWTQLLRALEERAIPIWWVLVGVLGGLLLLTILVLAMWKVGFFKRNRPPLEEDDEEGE
T2 sequence (P05106 27-788): as the sequence (P05106 27-788) above

Q: Which results are given for `O=C(CNC(=O)C1CCNCC1)NCC(NS(=O)(=O)c1ccccc1)C(=O)O` (stereo not drawn) [Compound 16]?
A: IC50 [1]: 49.3 µM; IC50 [2]: > 100 µM; IC50 (GPIIb-IIIa): 5 µM
